Experimental data from patent publication US7053234B2 (Amgen Inc., priority 2000, dated 2006).
pIC50: −log10 of the molar value. Values after ≈ are worked out from the molar mass of the structure shown. Read-outs that look alike come from different tables or passages of the source.

Experiments:
E. coli (tolC) = test: MIC determination, E. coli (tolC); type: cell-based; conditions: Escherichia coli
Method: (§1) For MIC determinations for selected bacteria, log phase growing bacteria are re-suspended at 1×10^5 bacteria per mL in LB medium. The compound is added and two-fold dilutions are made. The final volume in the 96-well plate is about 100 uL. The plate is incubated at 37° C. in the dark with shaking. After 16 hours of incubation, growth is monitored by reading A600 or by visual inspection. MIC is defined as the minimum concentration of drug resulting in inhibition of visible growth of bacterial under the conditions described (above) in National Committee for Clinical Laboratory Standards 1993. Methods for dilution antimicrobial susceptibility tests for bacteria that grow aerobically. Approved standard M7-A3; National Committee for Clinical Laboratory Standards: Villanova, Pa.

[1] = biological target: T1, Sigma^70 saturated E. coli RNA Polymerase (Escherichia coli, UniProt P0A8T7+P0A8V2); test: RNA polymerase inhibition assay (E. coli enzyme); type: biochemical; conditions: for IC50: Table 2, read-out: RNA-pol IC50 (μM) E. coli; for pIC50: Table 1, enzyme not named, method uses E. coli RNA polymerase, read-out: IC50
T1 construct: purchased Epicenter
Method: The compounds of the present invention can be evaluated for antibacterial activity in a variety of assay formats known to those of skill in art. The specific assays used to select the most appropriate compound for use will typically depend on the targeted bacteria or infection. One common assay involves evaluation of the compounds as RNA polymerase inhibitors. In this assay, buffer (250 mM KCl, 5% Glycerol, 10 mM MgCl2, 0.1 mg/ml BSA) is combined with 6 mM B-M.E., PT5 DNA template, and 1.3 ug/rxn Sigma^70 saturated E. coli RNA Polymerase (Epicenter). The compound is then added in a manner not to exceed 5% DMSO. Nucleotide triphosphates are then added at the following concentration: 250 uM ATP, […] and UTP with 100 uM cold CTP and 50 uM alpha ^32P CTP. The mixture is incubated for 10 min at about 37° C. A [2×] loading buffer is added and the mixture is then run on a 6% urea denaturing PAGE until bromophenol blue reaches the edge of plate. The gel is soaked (about 20 minutes in 10% MeOH and 10% acetic acid, to remove urea), then dried (about 55 minutes at about 85° C. (BioRad Gel Drier)) and exposed to a Phospho Imaging Plate for 1 hour. The plate is then read on a Fujix Bas1000 Imaging System and quantified using MacBas v2.0 software. An IC50 (in uM) can be calculated as the concentration of a drug which reduces the enzyme activity to 50% of the control.

S. aureus = test: MIC determination, S. aureus; type: cell-based; conditions: Staphylococcus aureus
Method: The compound is added and two-fold dilutions are made. The final volume in the 96-well plate is about 100 uL. The plate is incubated at 37° C. in the dark with shaking. After 16 hours of incubation, growth is monitored by reading A600 or by visual inspection. […] Methods for dilution antimicrobial susceptibility tests for bacteria that grow aerobically. Approved standard M7-A3; National Committee for Clinical Laboratory Standards: Villanova, Pa.

RNA-pol S. aureus = RNA-pol S. aureus (Staphylococcus aureus, UniProt P47768+Q2G0N5); test: RNA polymerase inhibition assay (S. aureus enzyme); type: biochemical; conditions: for IC50: Table 2, read-out: RNA-pol IC50 (μM) S. aureus
B. su = test: MIC determination, B. su; type: cell-based; conditions: Table 1, 16 hours at 37° C. in LB medium, read-out: B. su (bacterial MIC)
Method: as §1

[2] = read-out: MIC (μM) E. coli (tolC)
[3] = Table 2, read-out: MIC (μM) S. aureus
[4] = 16 h, read-out: E. c(tolC) (bacterial MIC)
[5] = Table 1, MIC, 16 hours at 37° C. in LB medium, read-out: S. au (bacterial MIC)

RNA-pol S. aureus, sequence (Q2G0N5 whole entry): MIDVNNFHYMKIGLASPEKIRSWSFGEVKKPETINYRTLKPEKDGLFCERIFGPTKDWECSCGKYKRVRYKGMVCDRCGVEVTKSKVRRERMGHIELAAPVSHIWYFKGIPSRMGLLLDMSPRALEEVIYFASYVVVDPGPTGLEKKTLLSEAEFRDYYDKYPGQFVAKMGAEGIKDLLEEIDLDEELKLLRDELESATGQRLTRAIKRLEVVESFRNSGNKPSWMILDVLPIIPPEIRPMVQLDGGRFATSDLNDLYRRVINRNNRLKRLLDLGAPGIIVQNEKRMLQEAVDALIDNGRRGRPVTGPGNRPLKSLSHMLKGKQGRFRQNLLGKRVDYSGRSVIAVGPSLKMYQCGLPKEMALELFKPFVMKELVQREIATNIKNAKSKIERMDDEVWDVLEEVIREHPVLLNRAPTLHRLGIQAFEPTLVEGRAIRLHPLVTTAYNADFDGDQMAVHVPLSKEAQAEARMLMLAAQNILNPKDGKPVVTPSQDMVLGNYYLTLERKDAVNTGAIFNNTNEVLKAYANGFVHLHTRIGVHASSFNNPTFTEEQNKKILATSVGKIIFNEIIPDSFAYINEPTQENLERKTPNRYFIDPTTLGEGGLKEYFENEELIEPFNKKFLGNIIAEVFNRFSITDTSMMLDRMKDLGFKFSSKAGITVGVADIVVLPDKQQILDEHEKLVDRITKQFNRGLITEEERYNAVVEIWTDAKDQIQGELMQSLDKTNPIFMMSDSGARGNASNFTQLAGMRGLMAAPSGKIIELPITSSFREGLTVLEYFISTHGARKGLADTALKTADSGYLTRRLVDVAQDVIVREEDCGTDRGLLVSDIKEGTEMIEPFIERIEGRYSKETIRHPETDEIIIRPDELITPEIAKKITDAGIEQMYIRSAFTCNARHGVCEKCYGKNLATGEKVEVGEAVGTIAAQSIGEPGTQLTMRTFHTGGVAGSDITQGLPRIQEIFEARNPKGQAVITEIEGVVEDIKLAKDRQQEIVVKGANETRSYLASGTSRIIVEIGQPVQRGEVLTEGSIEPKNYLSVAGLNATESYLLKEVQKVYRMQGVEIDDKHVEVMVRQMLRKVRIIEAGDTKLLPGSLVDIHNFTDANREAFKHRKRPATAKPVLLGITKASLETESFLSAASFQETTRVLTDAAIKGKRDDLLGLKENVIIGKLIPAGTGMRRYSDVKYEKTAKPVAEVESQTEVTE
RNA-pol S. aureus, sequence (Q2FW32 whole entry, further chain): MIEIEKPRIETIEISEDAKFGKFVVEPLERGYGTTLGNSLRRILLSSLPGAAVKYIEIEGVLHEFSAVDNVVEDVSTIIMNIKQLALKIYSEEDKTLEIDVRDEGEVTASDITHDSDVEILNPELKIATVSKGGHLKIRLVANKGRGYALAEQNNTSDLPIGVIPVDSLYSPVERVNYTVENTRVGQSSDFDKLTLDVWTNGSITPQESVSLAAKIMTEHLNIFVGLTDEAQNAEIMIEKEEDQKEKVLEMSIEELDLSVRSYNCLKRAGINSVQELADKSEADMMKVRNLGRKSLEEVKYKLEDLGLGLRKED
RNA-pol S. aureus, sequence (P47768 whole entry): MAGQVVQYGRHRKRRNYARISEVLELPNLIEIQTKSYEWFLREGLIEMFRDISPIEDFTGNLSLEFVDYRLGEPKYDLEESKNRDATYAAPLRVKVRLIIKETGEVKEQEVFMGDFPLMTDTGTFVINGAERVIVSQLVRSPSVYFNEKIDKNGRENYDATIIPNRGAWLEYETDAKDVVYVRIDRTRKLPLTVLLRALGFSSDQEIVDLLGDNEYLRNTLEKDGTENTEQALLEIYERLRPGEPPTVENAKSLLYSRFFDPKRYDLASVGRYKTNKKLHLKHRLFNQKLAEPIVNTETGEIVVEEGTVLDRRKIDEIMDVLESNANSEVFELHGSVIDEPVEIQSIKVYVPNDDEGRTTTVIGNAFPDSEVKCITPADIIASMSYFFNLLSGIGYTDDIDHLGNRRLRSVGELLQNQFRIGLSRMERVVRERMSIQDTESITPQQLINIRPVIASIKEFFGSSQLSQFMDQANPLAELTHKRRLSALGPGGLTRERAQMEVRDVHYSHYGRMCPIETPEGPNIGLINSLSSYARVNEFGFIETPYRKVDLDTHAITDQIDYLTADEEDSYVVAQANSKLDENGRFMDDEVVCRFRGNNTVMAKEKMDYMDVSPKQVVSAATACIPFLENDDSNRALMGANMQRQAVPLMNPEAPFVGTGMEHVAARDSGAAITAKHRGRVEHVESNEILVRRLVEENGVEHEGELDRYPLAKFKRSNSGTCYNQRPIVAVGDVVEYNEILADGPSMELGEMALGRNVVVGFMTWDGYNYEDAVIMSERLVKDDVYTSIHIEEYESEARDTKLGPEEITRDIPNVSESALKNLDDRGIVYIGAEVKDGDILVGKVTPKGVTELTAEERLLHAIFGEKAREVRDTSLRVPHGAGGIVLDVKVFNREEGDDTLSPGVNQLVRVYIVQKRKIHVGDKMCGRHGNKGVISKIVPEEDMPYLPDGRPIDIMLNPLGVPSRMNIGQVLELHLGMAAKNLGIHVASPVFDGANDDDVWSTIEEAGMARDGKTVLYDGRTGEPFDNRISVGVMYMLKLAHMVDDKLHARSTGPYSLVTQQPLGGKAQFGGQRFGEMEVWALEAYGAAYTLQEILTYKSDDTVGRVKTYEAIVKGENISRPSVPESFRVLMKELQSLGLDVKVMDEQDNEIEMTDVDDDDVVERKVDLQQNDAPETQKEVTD

With `OCCNc1ccc(C(=NO)Nc2cccc(Cl)c2)cc1C(F)(F)F` [Compound 111] the MIC (E. coli (tolC); [2]) was less than 40 µM, the IC50 [1] was 10 to 50 µM and the MIC (S. aureus; [3]) was greater than 125 µM.

For `CON=C1CCN(c2ccc(C(=NO)Nc3cccc(Cl)c3)cc2C(F)(F)F)C1` [Compound 110], the MIC (E. coli (tolC); [2]) was greater than 125 µM, the IC50 [1] was greater than 50 µM and the pIC50 (RNA-pol S. aureus) was less than 4.30. The MIC (S. aureus; [3]) was 40 to 125 µM (≈ 17.1 to 53.4 µg/mL).

`ON=C(Nc1cccc(Cl)c1)c1ccc(NCCN2CCNCC2)c(C(F)(F)F)c1` [Compound 112] was tested, and the MIC (E. coli (tolC); [2]) was less than 40 µM, the IC50 [1] was 10 to 50 µM and the pIC50 (RNA-pol S. aureus) was less than 4.30. The MIC (S. aureus; [3]) was greater than 125 µM.

For `ON=C(Nc1cccc(Cl)c1)c1ccc(NCCc2ccc(O)cc2)c(C(F)(F)F)c1` [Compound 113], the MIC (E. coli (tolC); [2]) was less than 40 µM, the IC50 [1] was 10 to 50 µM and the MIC (S. aureus; [3]) was less than 40 µM.

For `ON=C1CCN(c2ccc(C(=NO)Nc3cccc(Cl)c3)cc2C(F)(F)F)C1` [Compound 109], the MIC (E. coli (tolC); [2]) was less than 40 µM, the IC50 [1] was 10 to 50 µM and the pIC50 (RNA-pol S. aureus) was less than 4.30. For the same molecule, the MIC (S. aureus; [3]) was less than 40 µM.

`O=C(CNc1cccc(Cl)c1)Nc1cc(NC(=O)CNc2cccc(Cl)c2)cc(C(F)(F)F)c1` [Compound 140, 2-(3-Chloro-phenylamino)-N-{3-[2-(3-chloro-phenylamino)-acetylamino]-5-trifluoromethyl-phenyl}acetamide] gave an MIC (E. coli (tolC); [2]) greater than 125 µM and an MIC (S. aureus; [3]) of less than 40 µM.

For `O=C(CSc1ccccc1)Nc1cc(NC(=O)Nc2ccc(Cl)c(C(F)(F)F)c2)cc(C(F)(F)F)c1` [Compound 120], the MIC (E. coli (tolC); [2]) was less than 40 µM, the IC50 [1] was greater than 50 µM and the IC50 (RNA-pol S. aureus) was 10 to 50 µM. The MIC (S. aureus; [3]) was less than 40 µM.

With `O=C(Nc1cc(OCc2cccc(Cl)c2)cc(C(F)(F)F)c1)Nc1ccc(Cl)c(C(F)(F)F)c1` [Compound 135] the MIC (E. coli (tolC); [2]) was greater than 125 µM and the IC50 (RNA-pol S. aureus) was 10 to 50 µM.

Work on `ON=C(Nc1cccc(Cl)c1)c1ccc(Cl)c(C(F)(F)F)c1` [Example 64] yielded an MIC (B. su) of less than 40 µM, an MIC (E. coli (tolC); [4]) of less than 40 µM and a pIC50 [1] greater than 5.00. It also gave an MIC (S. aureus; [5]) of less than 40 µM.

Work on `ON=C(Nc1cccc(F)c1)c1ccc(Cl)c(Cl)c1` [R′=3-Cl, R″=4-Cl, R′″=3-F] yielded an MIC (B. su) of 40 to 125 µM (≈ 12 to 37.4 µg/mL), an MIC (E. coli (tolC); [4]) of less than 40 µM and a pIC50 [1] of 4.30 to 5.00. It also gave an MIC (S. aureus; [5]) of 40 to 125 µM (≈ 12 to 37.4 µg/mL).

`O=C(Nc1ccc(Cl)c(C(F)(F)F)c1)OCc1cc(-n2cccc2)cc(C(F)(F)F)c1` [Compound 137] showed an MIC (E. coli (tolC); [2]) of less than 40 µM, an IC50 (RNA-pol S. aureus) of 10 to 50 µM and an MIC (S. aureus; [3]) of less than 40 µM.

For `O=C(Nc1cc(N2CCOC2=O)cc(C(F)(F)F)c1)Nc1ccc(Cl)c(C(F)(F)F)c1` [Compound 126], the MIC (E. coli (tolC); [2]) was less than 40 µM, the IC50 (RNA-pol S. aureus) was less than 10 µM and the MIC (S. aureus; [3]) was greater than 125 µM.

`COCC1CCCN1c1cc(NC(=O)CNc2ccc(Cl)c(C(F)(F)F)c2)cc(C(F)(F)F)c1` (stereo not drawn) [Compound 129] showed an MIC (E. coli (tolC); [2]) greater than 125 µM, an IC50 (RNA-pol S. aureus) greater than 50 µM and an MIC (S. aureus; [3]) of less than 40 µM.

`COc1cc(NC(=O)CNc2ccc(Cl)c(C(F)(F)F)c2)cc(C(F)(F)F)c1` [Compound 128] gave an MIC (E. coli (tolC); [2]) of less than 40 µM, an IC50 (RNA-pol S. aureus) greater than 50 µM and an MIC (S. aureus; [3]) of less than 40 µM.

For `C=CCOC(=O)Nc1cc(NC(=O)Nc2ccc(Cl)c(C(F)(F)F)c2)cc(C(F)(F)F)c1` [Compound 119], the MIC (E. coli (tolC); [2]) was less than 40 µM and the MIC (S. aureus; [3]) was less than 40 µM.

`Nc1cc(NC(=O)Nc2ccc(Cl)c(C(F)(F)F)c2)cc(C(F)(F)F)c1` [Compound 118] gave an MIC (E. coli (tolC); [2]) of less than 40 µM, an IC50 (RNA-pol S. aureus) greater than 50 µM and an MIC (S. aureus; [3]) of less than 40 µM.

For `O=C(CNc1ccc(N2CCCCC2)c(C(F)(F)F)c1)Nc1cc(COc2cccc(Cl)c2)cc(C(F)(F)F)c1` [Compound 136, N-[3-(3-Chloro-phenoxymethyl)-5-trifluoromethyl-phenyl]-2-(4-piperidin-1-yl-3-trifluoromethyl-phenylamino)-acetamide], the MIC (E. coli (tolC); [2]) was greater than 125 µM, the IC50 (RNA-pol S. aureus) was less than 10 µM and the MIC (S. aureus; [3]) was less than 40 µM.

Work on `O=C(Nc1cc(N2CCNC2=O)cc(C(F)(F)F)c1)Nc1ccc(Cl)c(C(F)(F)F)c1` [Compound 127] yielded an MIC (E. coli (tolC); [2]) greater than 125 µM, an IC50 (RNA-pol S. aureus) of 10 to 50 µM and an MIC (S. aureus; [3]) greater than 125 µM.

`O=C(Nc1cc(N2CCCC2)cc(C(F)(F)F)c1)Nc1ccc(Cl)c(C(F)(F)F)c1` [Compound 123] gave an MIC (E. coli (tolC); [2]) greater than 125 µM, an IC50 (RNA-pol S. aureus) of less than 10 µM and an MIC (S. aureus; [3]) of less than 40 µM.
